Measurements as given in PubChem BioAssay (NCI).
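Values below derive from 48-hour exposures of cells grown in 96-well plates, with endpoints linearly interpolated between the two concentrations bracketing the appropriate inhibition level. TGI denotes the concentration required for complete inhibition of growth.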

Tests used:
Experiment in all cases: DTP human tumour cell line panel, 48 h
SNB-75 CNS = tested on: SNB-75 CNS
HS 578T breast = tested on: HS 578T breast
CCRF-CEM leukemia = tested on: CCRF-CEM leukemia
SW-620 colon = tested on: SW-620 colon
HOP-62 NSCLC = tested on: HOP-62 NSCLC
UO-31 renal = tested on: UO-31 renal
EKVX NSCLC = tested on: EKVX NSCLC
HCT-15 colon = tested on: HCT-15 colon
UACC-62 melanoma = tested on: UACC-62 melanoma
RXF 393 renal = tested on: RXF 393 renal
HCT-116 colon = tested on: HCT-116 colon
DU-145 prostate = tested on: DU-145 prostate
CAKI-1 renal = tested on: CAKI-1 renal
SF-295 CNS = tested on: SF-295 CNS
K-562 leukemia = tested on: K-562 leukemia
T-47D breast = tested on: T-47D breast
RPMI-8226 leukemia = tested on: RPMI-8226 leukemia
NCI-H460 lung = tested on: NCI-H460 lung
MCF7 breast = tested on: MCF7 breast
SK-MEL-28 melanoma = tested on: SK-MEL-28 melanoma
OVCAR-3 ovarian = tested on: OVCAR-3 ovarian
NCI/ADR-RES ovarian = tested on: NCI/ADR-RES ovarian
HOP-92 NSCLC = tested on: HOP-92 NSCLC
SNB-19 CNS = tested on: SNB-19 CNS
SF-539 CNS = tested on: SF-539 CNS
HL-60(TB) leukemia = tested on: HL-60(TB) leukemia
786-0 renal = tested on: 786-0 renal
TK-10 renal = tested on: TK-10 renal
KM12 colon = tested on: KM12 colon
UACC-257 melanoma = tested on: UACC-257 melanoma
SK-OV-3 ovarian = tested on: SK-OV-3 ovarian
OVCAR-5 ovarian = tested on: OVCAR-5 ovarian
MDA-MB-231 breast = tested on: MDA-MB-231 breast
IGROV1 ovarian = tested on: IGROV1 ovarian
HT29 colon = tested on: HT29 colon
SK-MEL-2 melanoma = tested on: SK-MEL-2 melanoma
OVCAR-8 ovarian = tested on: OVCAR-8 ovarian
LOX IMVI melanoma = tested on: LOX IMVI melanoma
A549 NSCLC = tested on: A549 NSCLC
SK-MEL-5 melanoma = tested on: SK-MEL-5 melanoma
MDA-N = tested on: MDA-N
NCI-H23 lung = tested on: NCI-H23 lung
MALME-3M melanoma = tested on: MALME-3M melanoma
SF-268 CNS = tested on: SF-268 CNS
MOLT-4 leukemia = tested on: MOLT-4 leukemia
COLO 205 colon = tested on: COLO 205 colon
MDA-MB-435 = tested on: MDA-MB-435
A498 renal = tested on: A498 renal
M14 melanoma = tested on: M14 melanoma
SN12C renal = tested on: SN12C renal
OVCAR-4 ovarian = tested on: OVCAR-4 ovarian
ACHN renal = tested on: ACHN renal
BT-549 breast = tested on: BT-549 breast
U251 CNS = tested on: U251 CNS
NCI-H226 lung = tested on: NCI-H226 lung
HCC-2998 colon = tested on: HCC-2998 colon
PC-3 prostate = tested on: PC-3 prostate
NCI-H522 lung = tested on: NCI-H522 lung

Measured: TGI

Cn1nc2ccc([N+](=O)[O-])c(Cn3nnc4ccccc43)c2n1
not listed: PC-3 prostate | NCI-H522 lung
> 100 µM: all other assays above

C1CSCCCSCCCSCCCSCCCSCCCSCCCSCCCSC1
not listed: SNB-75 CNS | UACC-62 melanoma
> 100 µM: all other assays above
